Where two headings read alike, the source gives them in different places.
Columns and labels:
patients [1] = test system: patients
Source text: In a clinical study three different concentrations were used; 0.1 wt. %, (10 subjects) 0.5 wt. % (12 subjects) and 1 wt. % (26 subjects).

[2] = test system: meibomian gland disorder (MGD) patients; conditions: twice a week, 3 month time point
Protocol: The drug was applied twice a week and final evaluation was done at the 3 month time point in which the primary outcome of Meibomian Gland Score (MGS) was assessed.

patients [3] = conditions: in vivo
Protocol: In a first study patients were instructed to dose in both the evening, between visits, and in the daytime during regular scheduled clinic visits as part of the study protocol. Study patients received a 2-week run-in on a placebo which was administered twice weekly for a period of two weeks.
Adverse events comprise a feeling of grittiness, foreign body feeling, stinging, blurry vision, redness, tired eyes, water eyes, irritation, lid abnormalities, burning, corneal abrasion, photophobia, staining, or dry eye disorder (DED).

rabbits = conditions: dose about 4 mg SeS2, concentration up to 2.5 wt. %, ointment applied over the eyelid margin
human subject = test system: human subject
Protocol: In most instances, the treatment is applied on a biweekly basis, however some patients move to daily application based on prespecified protocol criteria. Because the ointment-based composition is known to mix with tear fluid and cause blurry vision, individuals in this study are advised to apply the treatment prior to bed so as to avoid risks associated with reduced vision acuity. […] The in-office applications are conducted at specific, pre-determined time points. In these instances, the treatment is not applied before bed but rather is performed during daylight hours.

seborrheic blepharitis = conditions: cited from earlier work
[4] = in vivo; cited from earlier work

selenium disulfide [SeS2]
development of keratitis (patients [1]; human, in vivo): no development of keratitis | occurrence of keratitis with bedtime applications (patients [1]; human, in vivo): without a single occurrence of keratitis | subjects who developed keratitis or keratitis related symptoms (patients [1]; human, in vivo): four | total OSDI, VAS and SPEED (patients [1]; one patient, 1 wt. %, first month, twice weekly at home before bedtime): significant improvement | average change from baseline in Meibomian Gland Score (MGS) ([2]; 9 patients applying with finger): 10 (+/−8.2) | average change from baseline in Meibomian Gland Score (MGS) ([2]; 13 patients using the applicator (swab)): 2.3 (+/−4.4) | reduction in the incidence of ocular adverse events (patients [3]): 75% | reduction of rate of ocular adverse events (ocular AE) (patients [3]): at least 50% | tolerability (rabbits): well tolerated | health outcomes by OSDI, VAS and SPEED (human subject; at least one patient, 1 wt. %, one month of treatment): improved health outcomes | keratitis (human subject; in vivo): Keratitis is not observed | patients noting symptoms of keratitis (human subject; in vivo): four | efficacy in treating seborrheic blepharitis (seborrheic blepharitis; SeS2 0.5%, conclusion of most investigators): effective | adverse events following topical ocular use (seborrheic blepharitis; in vivo): superficial punctate keratitis and conjunctivitis | safe concentration of ophthalmic preparation for use in humans (seborrheic blepharitis; in vivo): 0.5% | adverse effect of shampooing [4]: diffuse hair loss | contact dermatitis or photo-contact dermatitis in tinea versicolor treatment [4]: None of the investigators encountered a single case | skin irritant effect [4]: can produce contact dermatitis | skin reaction after shampoo application [4]: circumscribed eczematous plaques on the light-exposed areas | time to resolution of hair loss after discontinuance [4]: 1-2 weeks
